Read-outs that look alike come from different tables or passages of the source.
Columns and labels:
[1] = In vivo study in rodents: fluvastatin pharmacokinetics with or without tamarixetin; details: tamarixetin pretreatment versus control, rats
Protocol: (§1) The test system used is the Sprague-Dawley rat.
(§2) After overnight fast, rats are anesthetized and prepared with a jugular catheter. […] Twelve blood samples (including pre dose blank) are collected over 24 hours—0, 10, 20, 40, 60, 120, 240, 360, 480, 720, 1080 and 1440 minutes. Each sample (0.5 to 0.6 mL blood) is collected into microfuge tubes containing 20 uL of 10 IU heparin (anti-coagulant). After separation, plasma samples are protected from light and stored at −80° C. freezer.

[2] = test system: CYP2C9; experiment: in vitro; details: Sprague-Dawley, rat, microsomes
[3] = test system: CYP2C9; details: for 4′-hydroxytolbutamide: Sprague-Dawley, rat, 7.5 min, pH 7.4; for % inhibition of CYP2C9 activity: tolbutamide 1 mM, rat liver microsomes
[4] = rats; cited from earlier work
[5] = target: CYP2C9 (Homo sapiens, UniProt P11712); details: cited from earlier work
CYP2C9 (Homo sapiens, UniProt P11712), sequence (P11712 whole entry): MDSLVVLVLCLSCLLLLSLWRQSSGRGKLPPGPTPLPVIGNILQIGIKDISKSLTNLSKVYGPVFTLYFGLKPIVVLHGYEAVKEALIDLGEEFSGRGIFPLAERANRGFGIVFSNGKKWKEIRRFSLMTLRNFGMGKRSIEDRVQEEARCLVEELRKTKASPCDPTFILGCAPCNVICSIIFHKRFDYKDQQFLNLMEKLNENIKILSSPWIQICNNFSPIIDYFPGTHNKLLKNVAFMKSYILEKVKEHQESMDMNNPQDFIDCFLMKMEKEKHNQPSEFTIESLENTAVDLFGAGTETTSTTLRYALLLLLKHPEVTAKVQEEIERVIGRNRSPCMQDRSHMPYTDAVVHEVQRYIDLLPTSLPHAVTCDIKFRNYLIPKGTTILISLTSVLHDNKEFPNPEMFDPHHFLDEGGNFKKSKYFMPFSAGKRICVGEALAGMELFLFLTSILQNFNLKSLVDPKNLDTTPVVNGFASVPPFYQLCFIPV

[6] = in vivo; details: Sprague-Dawley, rat, po, 1.5 mg/kg; for Cmax: Cmax of fluvastatin
Protocol: as §1, §2

[7] = pH 7.4, % inhibition of CYP2C9 activity
[8] = pH 7.4, % inhibition of tolbutamide metabolism in microsomes

For `COc1ccc(-c2oc3cc(O)cc(O)c3c(=O)c2O)cc1O` [Tamarixetin], the “change of terminal elimination rate constant (k) of fluvastatin” value [1] was “no apparent changes”, the inhibition at 7.5 min, 1 μM ([2]; pH 7.4, % inhibition) was 42% and the inhibition at 7.5 min, 10 μM ([2]; pH 7.4, % inhibition) was 88.2%. The inhibition at 7.5 min, 100 μM ([2]; pH 7.4, % inhibition) was 90.2%, the inhibition at 7.5 min, 1 μM [2, 7] was 42% and the inhibition at 7.5 min, 10 μM [2, 7] was 88.1%. The inhibition at 7.5 min, 100 μM [2, 7] was 90.2%, the inhibition at 7.5 min, 1 μM [2, 8] was 42% and the inhibition at 7.5 min, 10 μM [2, 8] was 88.1%. For the same molecule, the inhibition at 7.5 min, 100 μM [2, 8] was 90.2%, the “4′-hydroxytolbutamide” value ([3]; 1 μM) was 213.5696 ± 24.4309 ng and the “4′-hydroxytolbutamide” value ([3]; 10 μM) was 43.1 ± 2.5372 ng. For the same molecule, the “4′-hydroxytolbutamide” value ([3]; 100 μM) was 35.49 ± 1.5825 ng.

In the case of `CCCCNC(=O)NS(=O)(=O)c1ccc(C)cc1` [tolbutamide], the oral bioavailability [4] is listed as 90%.

With `COc1ccc([C@@H]2CC(=O)c3c(O)cc(O[C@@H]4O[C@H](CO[C@@H]5O[C@@H](C)[C@H](O)[C@@H](O)[C@H]5O)[C@@H](O)[C@H](O)[C@H]4O)cc3O2)cc1O` [Hesperidin] the “% inhibition of CYP2C9 activity” value ([3]; test article 1 μM) was 2.57% and the “% inhibition of CYP2C9 activity” value ([3]; test article 10 μM) was 6.68%.

For `CC(C)n1c(/C=C/C(O)CC(O)CC(=O)O)c(-c2ccc(F)cc2)c2ccccc21` (centres unmarked) [fluvastatin], the “share of metabolism for which liver CYP2C9 is responsible” value [5] is listed as “approximately 80%”, the AUC(0-inf) [6] is listed as 950 ± 133 ng·h/mL and the AUC(0-t) [6] is listed as 711 ± 81.5 ng·h/mL. It also gave an MRT inf [6] of 15.8 ± 1.56 h, a Tmax [6] of 4.7 ± 1.7 h and a Cmax [6] of 63.1 ± 10.4 ng/mL. The Cmax ([6]; control group) was 63.1 ± 10.4 ng/mL.

For `O=C1C[C@@H](c2ccc(O)cc2)Oc2cc(O)cc(O)c21` [Narigenin], the “% inhibition of CYP2C9 activity” value ([3]; test article 1 μM) was 5.20%, the “% inhibition of CYP2C9 activity” value ([3]; test article 10 μM) was 49.98% and the “% inhibition of CYP2C9 activity” value ([3]; test article 100 μM) was 79.70%.
